Measured values: US11000491B2, “Amino-aryl-benzamide compounds and methods of use thereof” (HEPANOVA, INC., priority 2017, dated 2021)

What was measured:
Type in all cases: cell-based
SREBP-1 = SREBP-1 expression in cultured primary human hepatocytes; conditions: Homo sapiens, Hepatocyte, procedure of Example 6, read-out: SREBP-1 mRNA inhibition (EC50)
Experimental: (§1) FIG. 9. Effects of HPN-01 on the expression of SREBP-1 (master regulator of hepatic glucose metabolism and fatty acid synthesis) and SREBP-2 (master regulator of cholesterol homeostasis in cells) in cultured primary human hepatocytes.
(§2) Cultured primary human hepatocytes were treated with various concentrations of HPN-01, and the expression levels of SREBP-1 (master regulator of hepatic glucose metabolism and fatty acid synthesis) and SREBP-2 (master regulator of cholesterol homeostasis in cells) were subsequently determined.
(§3) The ability of each HPN-01 derivative obtained from the synthesis methods described above, to inhibit SREBP-1 and SREBP-2 mRNA expression in primary hepatocytes, was tested using the procedure outlined in Example 6. The results of this analysis are shown in Table 6 (third and fourth columns).

SREBP-2 = SREBP-2 expression in cultured primary human hepatocytes; conditions: Homo sapiens, Hepatocyte, procedure of Example 6, read-out: SREBP-2 mRNA inhibition (EC50)
Experimental: as §1, §2, §3

Huh7 cells = assay: LD content in Huh7 cells pre-treated with insulin, Oil-Red-O staining, absorbance OD 540 nm; conditions: Homo sapiens, Huh-7, Huh7 cells, procedure of Example 3; read-out: LD content inhibition (EC50)
Experimental: FIG. 6. […] Spectrophotometric absorbance of untreated or HPN-01-treated Huh7 cells pre-incubated with 1 mM insulin is shown. LD contents were stained using Oil Red O, and measured by determining spectrophotometer absorbance under OD 540 nm.
Huh7 cells were mock treated or pre-treated with 1 mM insulin, and subsequently treated with indicated amounted of HPN-01.
The ability of each HPN-01 derivative obtained from the synthesis methods described above, to inhibit LD formation in hepatocytes, was tested using the procedure outlined in Example 3. The results of this analysis are shown below in Table 6 (second column).

In the case of `Cc1ccccc1C(=O)OCC#Cc1cc(C(N)=O)c(N)c(-c2ccc(S(N)(=O)=O)cc2)c1` [HPN-01212, 3-(6-amino-5-carbamoyl-4′-sulfamoyl-[1,1′-biphenyl]-3-yl)prop-2-yn-1-yl 2-methylbenzoate], the EC50 (SREBP-1) is reported as 2.27 µM, the EC50 (SREBP-2) is reported as 1.85 µM and the EC50 (Huh7 cells) is reported as 0.75 µM.
`NC(=O)c1cc(C#CCOC(=O)c2ccccc2F)cc(-c2ccc(S(N)(=O)=O)cc2)c1N` [HPN-01213, 3-(6-amino-5-carbamoyl-4′-sulfamoyl-[1,1′-biphenyl]-3-yl)prop-2-yn-1-yl 2-fluorobenzoate] showed an EC50 (SREBP-1) of 4.55 µM, an EC50 (SREBP-2) of 4.88 µM and an EC50 (Huh7 cells) of 1.29 µM.
For `Cc1ccc(C(=O)OCC#Cc2cc(C(N)=O)c(N)c(-c3ccc(S(N)(=O)=O)cc3)c2)cc1` [HPN-01214, 3-(6-amino-5-carbamoyl-4′-sulfamoyl-[1,1′-biphenyl]-3-yl)prop-2-yn-1-yl 4-methylbenzoate], the EC50 (SREBP-1) was 3.42 µM, the EC50 (SREBP-2) was 6.32 µM and the EC50 (Huh7 cells) was 0.52 µM.
`Cc1cccc(C(=O)OCC#Cc2cc(C(N)=O)c(N)c(-c3ccc(S(N)(=O)=O)cc3)c2)c1` [HPN-01215, 3-(6-amino-5-carbamoyl-4′-sulfamoyl-[1,1′-biphenyl]-3-yl)prop-2-yn-1-yl 3-methylbenzoate] gave an EC50 (SREBP-1) of 3.72 µM, an EC50 (SREBP-2) of 6.78 µM and an EC50 (Huh7 cells) of 0.61 µM.
In the case of `COc1cccc(C(=O)OCC#Cc2cc(C(N)=O)c(N)c(-c3ccc(S(N)(=O)=O)cc3)c2)c1` [HPN-01216, 3-(6-amino-5-carbamoyl-4′-sulfamoyl-[1,1′-biphenyl]-3-yl)prop-2-yn-1-yl 3-methoxybenzoate], the EC50 (SREBP-1) is reported as 4.35 µM, the EC50 (SREBP-2) is reported as 7.93 µM and the EC50 (Huh7 cells) is reported as 0.96 µM.
In the case of `COc1ccccc1C(=O)OCC#Cc1cc(C(N)=O)c(N)c(-c2ccc(S(N)(=O)=O)cc2)c1` [HPN-01217, 3-(6-amino-5-carbamoyl-4′-sulfamoyl-[1,1′-biphenyl]-3-yl)prop-2-yn-1-yl 2-methoxybenzoate], the EC50 (SREBP-1) is reported as 1.03 µM, the EC50 (SREBP-2) is reported as 2.07 µM and the EC50 (Huh7 cells) is reported as 0.18 µM.
`COc1ccc(C(=O)OCC#Cc2cc(C(N)=O)c(N)c(-c3ccc(S(N)(=O)=O)cc3)c2)cc1` [HPN-01218, 3-(6-amino-5-carbamoyl-4′-sulfamoyl-[1,1′-biphenyl]-3-yl)prop-2-yn-1-yl 4-methoxybenzoate] was tested, and the EC50 (SREBP-1) was 4.54 µM, the EC50 (SREBP-2) was 6.51 µM and the EC50 (Huh7 cells) was 0.99 µM.
Compound `NC(=O)c1cc(C#CCOC(=O)c2cccc(O)c2)cc(-c2ccc(S(N)(=O)=O)cc2)c1N` [HPN-01219, 3-(6-amino-5-carbamoyl-4′-sulfamoyl-[1,1′-biphenyl]-3-yl)prop-2-yn-1-yl 3-hydroxybenzoate] has an EC50 (SREBP-1) of 4.71 µM, an EC50 (SREBP-2) of 6.91 µM and an EC50 (Huh7 cells) of 0.96 µM.
`NC(=O)c1cc(C#CCOC(=O)c2ccc(O)cc2)cc(-c2ccc(S(N)(=O)=O)cc2)c1N` [HPN-01220, 3-(6-amino-5-carbamoyl-4′-sulfamoyl-[1,1′-biphenyl]-3-yl)prop-2-yn-1-yl 4-hydroxybenzoate] was tested, and the EC50 (SREBP-1) was 1.59 µM, the EC50 (SREBP-2) was 3.21 µM and the EC50 (Huh7 cells) was 0.46 µM.
`NC(=O)c1cc(C#CCOC(=O)c2ccccn2)cc(-c2ccc(S(N)(=O)=O)cc2)c1N` [HPN-01221, 3-(6-amino-5-carbamoyl-4′-sulfamoyl-[1,1′-biphenyl]-3-yl)prop-2-yn-1-yl picolinate] gave an EC50 (SREBP-1) of 1.67 µM, an EC50 (SREBP-2) of 3.47 µM and an EC50 (Huh7 cells) of 0.77 µM.
With `NC(=O)c1cc(C#CCOC(=O)c2ccc[nH]2)cc(-c2ccc(S(N)(=O)=O)cc2)c1N` [HPN-01222, 3-(6-amino-5-carbamoyl-4′-sulfamoyl-[1,1′-biphenyl]-3-yl)prop-2-yn-1-yl 1H-pyrrole-2-carboxylate] the EC50 (SREBP-1) was 7.31 µM, the EC50 (SREBP-2) was 12.8 µM and the EC50 (Huh7 cells) was 1.36 µM.
Work on `CC(=O)OCC#Cc1cc(C(N)=O)c(N)c(-c2ccc(S(N)(=O)=O)cc2)c1` [HPN-01223, 3-(6-amino-5-carbamoyl-4′-sulfamoyl-[1,1′-biphenyl]-3-yl)prop-2-yn-1-yl acetate] yielded an EC50 (SREBP-1) of 2.64 µM, an EC50 (SREBP-2) of 4.2 µM and an EC50 (Huh7 cells) of 1.03 µM.
`CCCC(=O)OCC#Cc1cc(C(N)=O)c(N)c(-c2ccc(S(N)(=O)=O)cc2)c1` [HPN-01224, 3-(6-amino-5-carbamoyl-4′-sulfamoyl-[1,1′-biphenyl]-3-yl)prop-2-yn-1-yl butyrate] showed an EC50 (SREBP-1) of 1.58 µM, an EC50 (SREBP-2) of 2.57 µM and an EC50 (Huh7 cells) of 0.58 µM.
Compound `COC(=O)c1ccc(-c2cc(C(N)=O)c(N)c(-c3ccc(S(N)(=O)=O)cc3)c2)cc1` [HPN-01301, methyl 4′-amino-5′-carbamoyl-4″-sulfamoyl-[1,1′:3′,1″-terphenyl]-4-carboxylate] has an EC50 (SREBP-1) of 3.44 µM, an EC50 (SREBP-2) of 5.35 µM and an EC50 (Huh7 cells) of 1.19 µM.
Work on `CCOC(=O)c1ccc(-c2cc(C(N)=O)c(N)c(-c3ccc(S(N)(=O)=O)cc3)c2)cc1` [HPN-01302, ethyl 4′-amino-5′-carbamoyl-4″-sulfamoyl-[1,1′:3′,1″-terphenyl]-4-carboxylate] yielded an EC50 (SREBP-1) of 3.16 µM, an EC50 (SREBP-2) of 4.52 µM and an EC50 (Huh7 cells) of 1.03 µM.
With `CC(C)OC(=O)c1ccc(-c2cc(C(N)=O)c(N)c(-c3ccc(S(N)(=O)=O)cc3)c2)cc1` [HPN-01303, isopropyl 4′-amino-5′-carbamoyl-4″-sulfamoyl-[1,1′:3′,1″-terphenyl]-4-carboxylate] the EC50 (SREBP-1) was 6.62 µM, the EC50 (SREBP-2) was 10.5 µM and the EC50 (Huh7 cells) was 1.3 µM.
For `CC(=O)Oc1ccc(-c2cc(C(N)=O)c(N)c(-c3ccc(S(N)(=O)=O)cc3)c2)cc1` [HPN-01304, 4′-amino-5′-carbamoyl-4″-sulfamoyl-[1,1′:3′,1″-terphenyl]-4-yl acetate], the EC50 (SREBP-1) was 1.54 µM, the EC50 (SREBP-2) was 2.77 µM and the EC50 (Huh7 cells) was 0.83 µM.
In the case of `CCC(=O)Oc1ccc(-c2cc(C(N)=O)c(N)c(-c3ccc(S(N)(=O)=O)cc3)c2)cc1` [HPN-01305, 4′-amino-5′-carbamoyl-4″-sulfamoyl-[1,1′:3′,1″-terphenyl]-4-yl propionate], the EC50 (SREBP-1) is reported as 1.74 µM, the EC50 (SREBP-2) is reported as 3.9 µM and the EC50 (Huh7 cells) is reported as 0.82 µM.
For `CCCC(=O)Oc1ccc(-c2cc(C(N)=O)c(N)c(-c3ccc(S(N)(=O)=O)cc3)c2)cc1` [HPN-01306, 4′-amino-5′-carbamoyl-4″-sulfamoyl-[1,1′:3′,1″-terphenyl]-4-yl butyrate], the EC50 (SREBP-1) was 1.76 µM, the EC50 (SREBP-2) was 3.26 µM and the EC50 (Huh7 cells) was 1.33 µM.
Work on `NC(=O)c1cc(-c2ccc(Cl)nc2)cc(-c2ccc(S(N)(=O)=O)cc2)c1N` [HPN-01307, 2-amino-5-(6-chloropyridin-3-yl)-4′-sulfamoyl-[1,1′-biphenyl]-3-carboxamide] yielded an EC50 (SREBP-1) of 5.68 µM, an EC50 (SREBP-2) of 4.59 µM and an EC50 (Huh7 cells) of 1.36 µM.
With `NC(=O)c1cc(-c2ccc(Cl)cn2)cc(-c2ccc(S(N)(=O)=O)cc2)c1N` [HPN-01308, 2-amino-5-(5-chloropyridin-2-yl)-4′-sulfamoyl-[1,1′-biphenyl]-3-carboxamide] the EC50 (SREBP-1) was 6.36 µM, the EC50 (SREBP-2) was 11.2 µM and the EC50 (Huh7 cells) was 1.9 µM.
With `NC(=O)c1cc(-c2cc(Cl)c[nH]2)cc(-c2ccc(S(N)(=O)=O)cc2)c1N` [HPN-01309, 2-amino-5-(4-chloro-1H-pyrrol-2-yl)-4′-sulfamoyl-[1,1′-biphenyl]-3-carboxamide] the EC50 (SREBP-1) was 8.16 µM, the EC50 (SREBP-2) was 8.96 µM and the EC50 (Huh7 cells) was 3.5 µM.
In the case of `NC(=O)c1cc(-c2c[nH]c(Cl)c2)cc(-c2ccc(S(N)(=O)=O)cc2)c1N` [HPN-01310, 2-amino-5-(5-chloro-1H-pyrrol-3-yl)-4′-sulfamoyl-[1,1′-biphenyl]-3-carboxamide], the EC50 (SREBP-1) is reported as 13 µM, the EC50 (SREBP-2) is reported as 23.9 µM and the EC50 (Huh7 cells) is reported as 10.5 µM.
Work on `NC(=O)c1cc(-c2c[nH]c(Br)c2)cc(-c2ccc(S(N)(=O)=O)cc2)c1N` [HPN-01311, 2-amino-5-(5-bromo-1H-pyrrol-3-yl)-4′-sulfamoyl-[1,1′-biphenyl]-3-carboxamide] yielded an EC50 (SREBP-1) of 3.09 µM, an EC50 (SREBP-2) of 5.59 µM and an EC50 (Huh7 cells) of 2.02 µM.
